# Assay results taken from patent US6696431B2, “26,27-homologated-20-EPI-2-alkylidene-19-nor-vitamin D compounds” (Wisconsin Alumni Research Foundation, priority 1997, dated 2004).
# Marks after values point to notes of the source that are not given here.
# Key:
# [1] = tested on: vitamin D-deficient rats; assay: Intestinal calcium transport (everted sac), chronic doses for 7 days (Table 1); type: in vivo, rat; details: for Intestinal Calcium Transport (S/M): intraperitoneal, 24 h after last dose, mean±SEM; for intestinal calcium transport, in words: chronic 7 days, 130 or 260 pmol/day, 1,25-(OH)2D3 at 260 pmol/day only
# Procedure: (§1) Male weanling rats were obtained from Sprague Dawley Co. (Indianapolis, Ind.) and fed a 0.47% calcium, 0.3% phosphorus vitamin D-deficient diet for 1 week and then given the same diet containing 0.02% calcium, 0.3% phosphorus for 2 weeks. During the last week they were given the indicated dose of compound by intraperitoneal injection in 0.1 ml 95% propylene glycol and 5% ethanol each day for 7 days. The control animals received only the 0.1 ml of 95% propylene glycol, 5% ethanol. Twenty-four hours after the last dose, the rats were sacrificed and intestinal calcium transport was determined by everted sac technique as previously described and serum calcium determined by atomic absorption spectrometry on a model 3110 Perkin Elmer instrument (Norwalk, Conn.). There were 5 rats per group and the values represent mean±SEM.
# [2] = tested on: Vitamin D-Deficient Rats on a Low-Calcium Diet; assay: Bone calcium mobilization (serum Ca) in vitamin D-deficient rats on a low-calcium diet (Tables 4, 6); type: in vivo, rat
# [3] = tested on: HL-60 cells; assay: Differentiation of HL-60 promyelocytes to monocytes (NBT reduction); type: cell-based; details: for HL-60 Differentiation ED50: concentration inducing 50% maturation, NBT reduction; for induction of differentiation of HL-60 cells to the monocyte, in words: FIG. 2; for HL-60 Differentiation Activity ratio: ratio of analog ED50 to ED50 for 1α,25-(OH)2D3
# [4] = tested on: Vitamin D-Deficient Rats on a Low-Calcium Diet; assay: Intestinal calcium transport in vitamin D-deficient rats on a low-calcium diet (Tables 4, 6); type: in vivo, rat
# [5] = tested on: vitamin D-deficient rats; assay: Serum calcium (bone calcium mobilization), chronic doses for 7 days (Table 1); type: in vivo, rat; details: for Serum Calcium: intraperitoneal, 24 h after last dose, mean±SEM; for bone calcium mobilization, in words: 130 and 260 pmol/day
# Procedure: as §1
# [6] = tested on: vitamin D-deficient rats; assay: Intestinal calcium transport after a single dose (Table 2); type: in vivo, rat; details: single intrajugular dose 650 pmol, 24 h later, mean±SEM
# Procedure: (§2) Male Holtzman strain weanling rats were obtained from the Sprague Dawley Co. (Indianapolis, Ind.) and fed the 0.47% calcium, 0.3% phosphorus diet described by Suda et al. (J. Nutr. 100, 1049-1052, 1970) for 1 week and then fed the same diet containing 0.02% calcium and 0.3% phosphorus for 2 additional weeks. At this point, they received a single intrajugular injection of the indicated dose dissolved in 0.1 ml of 95% propylene glycol/5% ethanol. Twenty-four hours later they were sacrificed and intestinal calcium transport and serum calcium were determined as described in Table 1. The dose of the compounds was 650 pmol and there were 5 animals per group. The data are expressed as mean±SEM.
# [7] = tested on: vitamin D-deficient rats; assay: Serum calcium (bone calcium mobilization) after a single dose (Table 2); type: in vivo, rat; details: single intrajugular dose 650 pmol, 24 h later, mean±SEM
# Procedure: as §2
# [8] = biological target: T1, porcine intestinal vitamin D receptor (Sus scrofa, UniProt A3RGC1); assay: Competitive binding to the porcine intestinal vitamin D receptor; details: for EC50: concentration for 50% displacement of radiolabeled 1α,25-(OH)2D3, read-out: VDR Binding ED50; for VDR Binding ratio: ratio of analog ED50 to ED50 for 1α,25-(OH)2D3
# T1 construct: from tissue; host or cells: porcine intestine
# T1 sequence (A3RGC1 1-427): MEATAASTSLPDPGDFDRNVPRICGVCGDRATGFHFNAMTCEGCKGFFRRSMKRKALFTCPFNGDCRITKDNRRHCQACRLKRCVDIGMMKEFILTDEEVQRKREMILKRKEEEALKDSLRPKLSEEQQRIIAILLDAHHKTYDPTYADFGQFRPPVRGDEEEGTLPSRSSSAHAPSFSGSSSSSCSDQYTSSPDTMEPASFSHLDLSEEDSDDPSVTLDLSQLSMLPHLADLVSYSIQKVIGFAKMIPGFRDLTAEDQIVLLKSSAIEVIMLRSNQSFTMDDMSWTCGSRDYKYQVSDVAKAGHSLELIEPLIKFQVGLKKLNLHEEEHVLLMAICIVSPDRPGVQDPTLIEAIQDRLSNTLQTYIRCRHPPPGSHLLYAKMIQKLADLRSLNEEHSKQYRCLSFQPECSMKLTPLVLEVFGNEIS
# [9] = 260 pmol daily for 7 days i.p., Table 4 and Table 6 panel 1
# [10] = 260 pmol daily for 7 days i.p., Table 6 panel 2
# [11] = 15 pmol daily for 7 days i.p., Table 4 and Table 6 panel 1
# [12] = 32 pmol daily for 7 days i.p., Table 4 and Table 6 panel 1
# [13] = 65 pmol daily for 7 days i.p., Table 6 panel 2
EC50 [8],VDR Binding ratio [8],Compound,Intestinal Calcium Transport (S/M) ([1]; 260 pmol/day for 7 days),"intestinal calcium transport, in words [1]","Serum Ca (mean ± SEM) [2, 10]","Ca Transport S/M (mean ± SEM) [4, 10]",Serum Calcium ([5]; 130 pmol/day for 7 days),Serum Calcium ([5]; 260 pmol/day for 7 days),Intestinal Calcium Transport (S/M) [6],Serum Calcium [7],HL-60 Differentiation Activity ratio [3],HL-60 Differentiation ED50 [3],further results
,,"C=C1/C(=C\C=C2/CCC[C@]3(C)[C@@H]([C@H](C)CCCC(C)(C)O)CC[C@@H]23)C[C@@H](O)C[C@@H]1O [1,25-(OH)2D3, 1α,25-dihydroxyvitamin D3, reference compound]",6.2 ± 0.4 S/M,expected elevation,6.3 ± 0.2^c,5.0 ± 0.4^c S/M,13.8 mg/100 ml,7.2 ± 0.5 mg/100 ml,5.8 ± 0.3 S/M,5.7 ± 0.2 mg/100 ml,,,"Serum Ca (mean ± SEM) [2, 9]: 5.6 ± 0.2^c; HL-60 Differentiation ED50 ([3]; listed as 1α,25-(OH)2D3): 4 nM; Ca Transport S/M (mean ± SEM) [4, 9]: 7.2 ± 0.6^c S/M"
,,"C=C1[C@H](O)CC(=C/C=C2\CCC[C@]3(C)[C@@H]([C@H](C)CCCC(C)(C)O)CC[C@@H]23)C[C@H]1O [2-Methylene-19-Nor-1,25-(OH)2D3, 1α,25-dihydroxy-2-methylene-19-nor-vitamin D3]",4.9 ± 0.6 S/M,no intestinal calcium transport activity,,,9.9 ± 0.2 mg/100 ml,9.6 ± 0.3 mg/100 ml,5.3 ± 0.5 S/M,6.4 ± 0.1 mg/100 ml,,,"Intestinal Calcium Transport (S/M) ([1]; 130 pmol/day for 7 days): 5.3 ± 0.4 S/M; induction of differentiation of HL-60 cells to the monocyte, in words [3]: activity similar to 1,25-(OH)2D3; bone calcium mobilization, in words ([5]; chronic 7 days): extremely strong bone calcium mobilization; bone calcium mobilization activity relative to 1,25-(OH)2D3 (native hormone) ([5]; chronic 7 days, for the 20(S) compound at 130 pmol/day): 10-100 times"
,,"C=C1[C@H](O)CC(=C/C=C2\CCC[C@]3(C)[C@@H]([C@@H](C)CCCC(C)(C)O)CC[C@@H]23)C[C@H]1O [2-Methylene-19-Nor-20(S)-1,25-(OH)2D3, 20(S)-1α,25-dihydroxy-2-methylene-19-nor-vitamin D3]",4.6 ± 0.7 S/M,no significant change,,,13.8 ± 0.5 mg/100 ml,14.4 ± 0.6 mg/100 ml,5.5 ± 0.6 S/M,8.0 ± 0.1 mg/100 ml,,,"Intestinal Calcium Transport (S/M) ([1]; 130 pmol/day for 7 days): 5.7 ± 0.8 S/M; induction of differentiation of HL-60 cells to the monocyte, in words [3]: extremely potent; Serum Calcium ([5]; 260 pmol/day for 7 days, listed as 2-methylene-19-nor-20(S)-1,25-(OH)2D3): 14 mg/100 ml; bone calcium mobilization, in words ([5]; chronic 7 days): most potent compound tested"
4.3 nM,4.9,"C=C1[C@H](O)CC(=C/C=C2\CCC[C@@]3(C)C2CCC3[C@@H](C)CCCC(O)(CC)CC)C[C@H]1O (stereo partly drawn) [Compound 35, 20(S)-1α,25-Dihydroxy-2-methylene-26,27-dihomo-19-norvitamin D3]",,,,,,,,,0.01,,"Serum Ca (mean ± SEM) [2, 11]: 5.3 ± 0.1^d^^1; Serum Ca (mean ± SEM) [2, 12]: 7.3 ± 0.4^d^^2; Ca Transport S/M (mean ± SEM) [4, 11]: 4.0 ± 0.4^d^^1 S/M; Ca Transport S/M (mean ± SEM) [4, 12]: 8.2 ± 0.6^d^^2 S/M"
29 nM,33,"C=C1[C@H](O)CC(=C/C=C2\CCC[C@@]3(C)C2CCC3[C@@H](C)CCC=C2CCCC2)C[C@H]1O (stereo partly drawn) [Compound 45, 20(S)-26,27-dimethylene-1α-hydroxy-2-methylene-24-dehydro-19-norvitamin D3]",,,10.8 ± 0.3^d^^2,4.3 ± 0.5^d^^2 S/M,,,,,1.0,4.1 nM,"Serum Ca (mean ± SEM) [2, 13]: 5.7 ± 0.1^d^^1; Ca Transport S/M (mean ± SEM) [4, 13]: 5.5 ± 0.8^d^^1 S/M"
15 nM,17,"C=C1[C@H](O)CC(=C/C=C2\CCC[C@@]3(C)C2CCC3[C@@H](C)CCCC2(OC)CCCC2)C[C@H]1O (stereo partly drawn) [Compound 46, 20(S)-26,27-dimethylene-1α-hydroxy-25-methoxy-2-methylene-19-norvitamin D3]",,,10.8 ± 0.3^e^^2,4.3 ± 0.5^e^^2 S/M,,,,,1.1,4.3 nM,"Serum Ca (mean ± SEM) [2, 13]: 5.7 ± 0.1^e^^1; Ca Transport S/M (mean ± SEM) [4, 13]: 5.5 ± 0.8^e^^1 S/M"
2.7 nM,3.1,"C=C1[C@H](O)CC(=C/C=C2\CCC[C@@]3(C)C2CCC3[C@@H](C)CCCC2(O)CCCC2)C[C@H]1O (stereo partly drawn) [Compound 47, 20(S)-1α,25-dihydroxy-26,27-dimethylene-2-methylene-19-norvitamin D3]",,,,,,,,,0.01,0.036 nM,"Serum Ca (mean ± SEM) [2, 11]: 5.4 ± 0.2^d^^1; Serum Ca (mean ± SEM) [2, 12]: 6.4 ± 0.2^d^^2; Ca Transport S/M (mean ± SEM) [4, 11]: 5.6 ± 0.6^d^^1 S/M; Ca Transport S/M (mean ± SEM) [4, 12]: 5.3 ± 0.5^d^^2 S/M"
